Our source for the caspase activation (% of PBS control) values is the OligoGym collection.

Bases are written 5' to 3'; sugars and linkages follow in the same order, as letters with counts (s phosphorothioate, o phosphodiester; PS: all linkages phosphorothioate). C may stand for cytosine or 5-methylcytosine; the collection does not tell. l = locked nucleic acid (LNA); d = 2'-deoxy (DNA)

The target in the data set is HIF1A. Kind of data set: HeLa, 100 nM transfected, 24 h, mean of 3. The settings on record: ASO.
On to CAAGCATCCTGTA (sugars l4 d6 l3, PS), for which the caspase activation (% of PBS control) stood at 171.
Take “GTTACTGCCTTCT (sugars l2 d1 l1 d7 l2, PS)”: the caspase activation (% of PBS control) was determined as 134.
For “GTTACTGCCTTCTTAC (sugars lldlddddddddlldl, PS)”, the caspase activation (% of PBS control) is 187.
Take “GGCAAGCATCCTG (sugars l2 d8 l1 d1 l1, PS)”: the caspase activation (% of PBS control) was 327.
Next, “GTTACTGCCTTCTTAC (sugars ldllddddddddldll, PS)”: 181; “TGGCAAGCATCCTGTA (sugars lllldddddddldldl, PS)”: 372.
Next, “CAAGCATCCTGTA (sugars l2 d8 l1 d1 l1, PS)”: 175.
Next, “TGGCAAGCATCCTGTA (sugars l1 d1 l3 d9 l2, PS)”: 463.
“GTTACTGCCTTCTTAC (sugars lddllddddddlddll, PS)” displayed a caspase activation (% of PBS control) of 218.
“GTTACTGCCTTCTTAC (sugars lddllddddddldddl, PS)”: the caspase activation (% of PBS control) was 188.
As to “GTTACTGCCTTCT (sugars l1 d1 l1 d7 l3, PS)”, the caspase activation (% of PBS control) was 170.
Next, “TGGCAAGCATCCTGTA (sugars ldldlddddddllldl, PS)”: 261; “GTTACTGCCTTCTTAC (sugars l2 d11 l1 d1 l1, PS)”: 129; “GTTACTGCCTTCTTAC (sugars l1 d1 l1 d9 l4, PS)”: 147.
“GCAAGCATCCTGT (sugars l3 d7 l1 d1 l1, PS)” registered a caspase activation (% of PBS control) of 426.
As to GGCAAGCATCCTG (sugars l4 d8 l1, PS), the caspase activation (% of PBS control) turned out to be 604.
With GTTACTGCCTTCTTAC (sugars l2 d11 l3, PS) the figure was 122; with “GGCAAGCATCCTG (sugars lldlddddddldl, PS)”, 334.
GGCAAGCATCCTG (sugars l4 d7 l2, PS) yielded a caspase activation (% of PBS control) of 528.
With “TGGCAAGCATCCTGTA (sugars lldllddddddlddll, PS)” the figure was 475.
Next, “GTTACTGCCTTCTTAC (sugars l1 d1 l3 d9 l2, PS)”: 292; “TGGCAAGCATCCTGTA (sugars ldlllddddddldddl, PS)”: 417; “GTTACTGCCTTCTTAC (sugars l2 d1 l1 d8 l4, PS)”: 194.
With “TACTGCCTTCTTA (sugars l1 d1 l1 d7 l3, PS)” the figure was 494; with “GTTACTGCCTTCTTAC (sugars l1 d1 l3 d6 l5, PS)”, 616; with “GTTACTGCCTTCTTAC (sugars llldlddddddldldl, PS)”, 316.
“TGGCAAGCATCCTGTA (sugars ldlldddddddddldl, PS)” gave a caspase activation (% of PBS control) of 297.
Next, “TGGCAAGCATCCTGTA (sugars l5 d6 l2 d2 l1, PS)”: 344; “TGGCAAGCATCCTGTA (sugars ldddlddddddlldll, PS)”: 285; “GCAAGCATCCTGT (sugars l1 d1 l2 d6 l3, PS)”: 186.
Take “TGGCAAGCATCCTGTA (sugars l2 d2 l1 d10 l1, PS)”: the caspase activation (% of PBS control) was determined as 423.
ACTGCCTTCTTAC (sugars l3 d9 l1, PS): the caspase activation (% of PBS control) was 332.
Sequence “GTTACTGCCTTCTTAC (sugars ldldlddddddlldll, PS)” registered a caspase activation (% of PBS control) of 250.
Next, “TGGCAAGCATCCTGTA (sugars ldllddddddddldll, PS)”: 466; “GTTACTGCCTTCTTAC (sugars l2 d2 l1 d10 l1, PS)”: 158; GTTACTGCCTTCT (sugars l4 d7 l2, PS): 196.
Take TGGCAAGCATCCTGTA (sugars l3 d12 l1, PS): the caspase activation (% of PBS control) came to 237.
Next, “GTTACTGCCTTCTTAC (sugars lldllddddddlldll, PS)”: 289; “TACTGCCTTCTTA (sugars l1 d1 l1 d9 l1, PS)”: 193.
With “GTTACTGCCTTCTTAC (sugars ldlldddddddldlll, PS)” the figure was 195.
With “TGGCAAGCATCCTGTA (sugars lldldddddddddldl, PS)” the figure was 522; with “TGGCAAGCATCCTGTA (sugars ldlldddddddlldll, PS)”, 381.
Turning to TGGCAAGCATCCTGTA (sugars l2 d13 l1, PS), the caspase activation (% of PBS control) stood at 489.
Take TTACTGCCTTCTT (sugars l1 d9 l3, PS): the caspase activation (% of PBS control) amounted to 131.
“TGGCAAGCATCCT (sugars lldlddddddldl, PS)” returned a caspase activation (% of PBS control) of 369.
The sequence “GCAAGCATCCTGT (sugars ldllddddddldl, PS)” had a caspase activation (% of PBS control) of 176.
Take “TGGCAAGCATCCTGTA (sugars ldlldddddddlddll, PS)”: the caspase activation (% of PBS control) turned out to be 306.
Next, “GTTACTGCCTTCTTAC (sugars ldllldddddddldll, PS)”: 387; TGGCAAGCATCCT (sugars l4 d7 l2, PS): 447; “ACTGCCTTCTTAC (sugars ldldddddddldl, PS)”: 208.
Next, “GTTACTGCCTTCTTAC (sugars l1 d12 l1 d1 l1, PS)”: 103; “TGGCAAGCATCCT (sugars l1 d2 l1 d7 l2, PS)”: 157; TGGCAAGCATCCTGTA (sugars l2 d9 l5, PS): 368.
Next, “TGGCAAGCATCCTGTA (sugars llddlddddddlddll, PS)”: 455.
For “TGGCAAGCATCCTGTA (sugars lddlldddddddlldl, PS)”, the caspase activation (% of PBS control) was found to be 409.
Next, “ACTGCCTTCTTAC (sugars l2 d1 l1 d7 l2, PS)”: 162; GTTACTGCCTTCTTAC (sugars l5 d9 l2, PS): 363.
TGGCAAGCATCCT (sugars l4 d6 l3, PS): the caspase activation (% of PBS control) was 361.
Sequence “TGGCAAGCATCCTGTA (sugars lldllddddddllldl, PS)” gave a caspase activation (% of PBS control) of 474.
“TGGCAAGCATCCTGTA (sugars ldldlddddddddlll, PS)” registered a caspase activation (% of PBS control) of 277.
With “GTTACTGCCTTCTTAC (sugars ldldddddddddlddl, PS)” the figure was 118; with “GTTACTGCCTTCTTAC (sugars llddldddddddldll, PS)”, 218; with “GTTACTGCCTTCTTAC (sugars lddlldddddddldll, PS)”, 240.
With “CAAGCATCCTGTA (sugars lldlddddddldl, PS)” the figure was 142; with “TGGCAAGCATCCTGTA (sugars l3 d1 l1 d7 l4, PS)”, 377; with “GTTACTGCCTTCTTAC (sugars l4 d7 l1 d3 l1, PS)”, 250.
Consider “GTTACTGCCTTCTTAC (sugars l2 d9 l1 d1 l3, PS)”, for which the caspase activation (% of PBS control) came out at 157.
In the case of “ACTGCCTTCTTAC (sugars l1 d1 l2 d8 l1, PS)”, the caspase activation (% of PBS control) was 222.
With “TGGCAAGCATCCT (sugars l1 d2 l1 d6 l3, PS)” the figure was 112; with “TGGCAAGCATCCTGTA (sugars ldlddddddddldlll, PS)”, 195.
Next, “GTTACTGCCTTCTTAC (sugars lddldddddddlldll, PS)”: 151; “TGGCAAGCATCCT (sugars l2 d1 l1 d6 l3, PS)”: 259; “GTTACTGCCTTCTTAC (sugars ldldddddddddlldl, PS)”: 165.
“TGGCAAGCATCCTGTA (sugars llldldddddddlddl, PS)”: the caspase activation (% of PBS control) turned out to be 341.
Next, “CAAGCATCCTGTA (sugars l1 d1 l2 d8 l1, PS)”: 145; “CAAGCATCCTGTA (sugars l1 d9 l1 d1 l1, PS)”: 92.1; “GTTACTGCCTTCTTAC (sugars l1 d1 l3 d7 l4, PS)”: 465.
In turn, “TACTGCCTTCTTA (sugars l1 d2 l1 d8 l1, PS)” registered a caspase activation (% of PBS control) of 118.
With “GTTACTGCCTTCTTAC (sugars l1 d1 l1 d12 l1, PS)” the figure was 103; with “TTACTGCCTTCTT (sugars l2 d1 l1 d8 l1, PS)”, 147.
With “TGGCAAGCATCCTGTA (sugars l2 d11 l1 d1 l1, PS)” the figure was 369.
Sequence “TGGCAAGCATCCTGTA (sugars l2 d1 l2 d8 l3, PS)” displayed a caspase activation (% of PBS control) of 407.
“GTTACTGCCTTCTTAC (sugars l2 d1 l1 d11 l1, PS)” yielded a caspase activation (% of PBS control) of 110.
Next, “GTTACTGCCTTCTTAC (sugars llldlddddddlldll, PS)”: 307.
Next, “ACTGCCTTCTTAC (sugars l1 d2 l1 d7 l2, PS)”: 112; “GTTACTGCCTTCTTAC (sugars l2 d10 l2 d1 l1, PS)”: 151.
With “GTTACTGCCTTCTTAC (sugars ldldlddddddldddl, PS)”, the caspase activation (% of PBS control) is 234.
Turning to CAAGCATCCTGTA (sugars l2 d10 l1, PS), the caspase activation (% of PBS control) was found to be 142.
With “TGGCAAGCATCCTGTA (sugars lldlddddddddlldl, PS)” the figure was 461.
